# Reference: PubChem BioAssay AID2060503 (Molecular Pharmacology Branch, DTP, NCI, 2025)
# pIC50: −log10 of the molar value.
# Test system: 817829-284-R-J1-PDC complex spheroids, viability
# Experiment: Anticancer human tumor 817829-284-R-J1-PDC patient-derived colon adenocarcinoma cell line growth inhibition [GQUAD]
# Conditions: for pIC50: curve of first compound; for viability, T/C: stronger effect = lower value
# Source text: DNA G-quadruplex Stabilizer Agents in Combinations in Complex Spheroids
# A high-throughput screen of multi-cell type tumor spheroids was designed to identify active combinations of DNA G-quadruplex stabilizer agents and targeted small molecules. Complex spheroids include a stromal component modeled by human endothelial cells (HUVEC) and fibroblasts modeled by human mesenchymal stem cells (MSCs). The concentration ranges selected for each drug and investigational agent were based upon clinically achievable concentrations if the clinical Cmax of the agent was known.
# Compounds. The drugs and investigational agents: pidnarulex (CX-5461; NSC782164), APTO-253 (NSC789042), BRACO-19 (NSC847499), peposertib (NSC802822), ceralasertib (NSC780249), elimusertib (NSC800525), camonsertib (NSC841442), AZD-1390 (NSC803789), olaparib (NSC753686), talazoparib (NSC767125), ART-558 (NSC835418), sotorasib (NSC818433), MRTX-1133 (NSC836407), SN-38 (NSC673596), topotecan (NSC609699), etoposide (NSC141540), doxorubicin (NSC123127), gemcitabine (NSC613327), 5-fluorouracil (NSC19893), paclitaxel (NSC125973), vemurafenib (NSC761431), panobinostat (NSC761190), R-306465 (JNJ-16241199; NSC773264), adavosertib (NSC754352), TP-3654 (NSC805149), carboplatin (NSC241240), KSQ-4279 (NSC840948), and staurosporine (NSC755774) were obtained from the National Cancer Institute (NCI) Developmental Therapeutics Program Chemical Repository (34). The FDA-approved anticancer drug set is available from the NCI Developmental Therapeutics Program. […] The stock solutions were prepared in dimethyl sulfoxide (DMSO, Sigma-Aldrich, St. Louis, MO, cat. D2650) at 800-fold the tested concentration and stored at -70 degrees C prior to their use. All drugs and investigational agents were tested over a range starting from a high concentration at or near the clinical Cmax and decreasing in half-log increments. If the clinical Cmax for an agent had not been determined, the highest concentration tested was 10 microM.
# 2.3 Cell Culture. All cells were maintained in an incubator at 37 degrees C and 5% CO2 with 95% humidity. The PDC lines were cultured according to standard operating procedures established by the NCI PDMR. All PDCs were thawed and cultured in Matrigel-coated flasks prepared with a working solution of 1X Ham's F-12 nutrient mix, without supplementation (Invitrogen, cat. 11765054), 100 U/mL penicillin-streptomycin (Invitrogen, cat. 15140122), and 2.5% Matrigel (Corning Inc., cat. 354248) for the first three passages. The 857933-349-R-J2-PDC line was cultured in 6C/Colon 1B media, which includes advanced DMEM/F-12 (Thermo Fisher Scientific, cat. 12634028), 10 mM HEPES (Thermo Fisher Scientific, cat. 15630080), 1X GlutaMAX supplement (Thermo Fisher Scientific, cat. 35050061), 0.1 mg/mL primocin (InvivoGen, cat. ant-pm-2), 10% defined fetal bovine serum, heat inactivated (HyClone Laboratories Inc., cat. SH30070.03HI), 50% L-WRN conditioned media (ATCC, cat. CRL-3276), 1.25 mM N-Acetyl-L-cysteine (Sigma-Aldrich, cat. A9165), 10 mM nicotinamide (Sigma-Aldrich, cat. N0636), 1X B-27 supplement (Thermo Fisher Scientific, cat. 17504044), 1X N-2 supplement (Thermo Fisher Scientific, cat. 17502048), 10 microM Y-27632 dihydrochloride (Tocris Bioscience, cat. 1254), and 50 ng/mL human EGF recombinant protein (Thermo Fisher Scientific, cat. PHG0311). The 485176-168-R4-J1-PDC line was cultured in Panc media, which includes all 6C/Colon 1B media components plus 100 ng/mL human FGF-10 (Thermo Fisher Scientific, cat. 100-26), 500 nM SB-431542 (Selleckchem, cat. S1067), and gastrin (Tocris, cat. 3006).
# […]
# [1] = second compound 0.0316 µM, first compound 0.0316 µM
# [2] = second compound 0.0316 µM, first compound 0.1 µM
# [3] = second compound 0.0316 µM, first compound 0.316 µM
# [4] = second compound 0.0316 µM, first compound 1 µM
# [5] = second compound 0.0316 µM, first compound 3.16 µM
# [6] = second compound 0.0316 µM, first compound 10 µM
# [7] = second compound 0.1 µM, first compound 0.0316 µM
# [8] = second compound 0.1 µM, first compound 0.1 µM
# [9] = second compound 0.1 µM, first compound 0.316 µM
# [10] = second compound 0.1 µM, first compound 1 µM
# [11] = second compound 0.1 µM, first compound 3.16 µM
# [12] = second compound 0.1 µM, first compound 10 µM
# [13] = second compound 0.316 µM, first compound 0.0316 µM
# [14] = second compound 0.316 µM, first compound 0.1 µM
# [15] = second compound 0.316 µM, first compound 0.316 µM
# [16] = second compound 0.316 µM, first compound 1 µM
# [17] = second compound 0.316 µM, first compound 3.16 µM
# [18] = second compound 0.316 µM, first compound 10 µM
# [19] = second compound 1 µM, first compound 0.0316 µM
# [20] = second compound 1 µM, first compound 0.1 µM
# [21] = second compound 1 µM, first compound 0.316 µM
# [22] = second compound 1 µM, first compound 1 µM
# [23] = second compound 1 µM, first compound 3.16 µM
# [24] = second compound 1 µM, first compound 10 µM
# [25] = second compound 3.16 µM, first compound 0.0316 µM
# [26] = second compound 3.16 µM, first compound 0.1 µM
# [27] = second compound 3.16 µM, first compound 0.316 µM
# [28] = second compound 3.16 µM, first compound 1 µM
# [29] = second compound 3.16 µM, first compound 3.16 µM
# [30] = second compound 3.16 µM, first compound 10 µM
# [31] = second compound 10 µM, first compound 0.0316 µM
# [32] = second compound 10 µM, first compound 0.1 µM
# [33] = second compound 10 µM, first compound 0.316 µM
# [34] = second compound 10 µM, first compound 1 µM
# [35] = second compound 10 µM, first compound 3.16 µM
# [36] = second compound 10 µM, first compound 10 µM
# 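Also: spheroids exposed to agents for 7 days before readout.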
# 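For viability, T/C in this document: percent viability relative to DMSO vehicle control taken as 100%.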
smiles,measurement,setting,value
COc1cc(C2c3cc4c(cc3C(OC3OC5COC(C)OC5C(O)C3O)C3COC(=O)C23)OCO4)cc(OC)c1O (centres undefined) + CN(C)c1ccc(Nc2c3ccc(NC(=O)CCN4CCCC4)cc3nc3cc(NC(=O)CCN4CCCC4)ccc23)cc1,pIC50,second compound 0.0316 µM,6.42
same,pIC50,second compound 0.1 µM,6.36
same,pIC50,second compound 0.316 µM,6.43
same,pIC50,second compound 1 µM,6.64
same,pIC50,second compound 3.16 µM,6.64
same,pIC50,second compound 10 µM,6.53
same,"viability, T/C",[1],103%
same,"viability, T/C",[2],85.7%
same,"viability, T/C",[3],35%
same,"viability, T/C",[4],42.8%
same,"viability, T/C",[5],32.1%
same,"viability, T/C",[6],10.2%
same,"viability, T/C",[7],97.5%
same,"viability, T/C",[8],88.6%
same,"viability, T/C",[9],34.5%
same,"viability, T/C",[10],44.9%
same,"viability, T/C",[11],33.9%
same,"viability, T/C",[12],11%
same,"viability, T/C",[13],92.7%
same,"viability, T/C",[14],81.6%
same,"viability, T/C",[15],37.7%
same,"viability, T/C",[16],40.4%
same,"viability, T/C",[17],33.3%
same,"viability, T/C",[18],11.8%
same,"viability, T/C",[19],101%
same,"viability, T/C",[20],92.1%
same,"viability, T/C",[21],33.1%
same,"viability, T/C",[22],40.7%
same,"viability, T/C",[23],32%
same,"viability, T/C",[24],9.94%
same,"viability, T/C",[25],95.4%
same,"viability, T/C",[26],87.9%
same,"viability, T/C",[27],34.3%
same,"viability, T/C",[28],37%
same,"viability, T/C",[29],30.7%
same,"viability, T/C",[30],10.4%
same,"viability, T/C",[31],86.9%
same,"viability, T/C",[32],68.2%
same,"viability, T/C",[33],37.1%
same,"viability, T/C",[34],41.5%
same,"viability, T/C",[35],27.3%
same,"viability, T/C",[36],10%
Cc1cccc(N(C)C(=O)C2C(O)CCN2c2nc(C)cc(C(F)(F)F)c2C#N)c1 (centres undefined) + CN(C)c1ccc(Nc2c3ccc(NC(=O)CCN4CCCC4)cc3nc3cc(NC(=O)CCN4CCCC4)ccc23)cc1,pIC50,second compound 0.0316 µM,< 5.00
same,pIC50,second compound 0.1 µM,< 5.00
same,pIC50,second compound 0.316 µM,< 5.00
same,pIC50,second compound 1 µM,< 5.00
same,pIC50,second compound 3.16 µM,< 5.00
same,pIC50,second compound 10 µM,5.39
same,"viability, T/C",[1],101%
same,"viability, T/C",[2],102%
same,"viability, T/C",[3],92.5%
same,"viability, T/C",[4],90%
same,"viability, T/C",[5],92.8%
same,"viability, T/C",[6],85.4%
same,"viability, T/C",[7],89.3%
same,"viability, T/C",[8],109%
same,"viability, T/C",[9],90.1%
same,"viability, T/C",[10],112%
same,"viability, T/C",[11],93.3%
same,"viability, T/C",[12],79.9%
same,"viability, T/C",[13],99.3%
same,"viability, T/C",[14],96.8%
same,"viability, T/C",[15],90.6%
same,"viability, T/C",[16],93.1%
same,"viability, T/C",[17],99.4%
same,"viability, T/C",[18],90.8%
same,"viability, T/C",[19],95.5%
same,"viability, T/C",[20],88.2%
same,"viability, T/C",[21],90.5%
same,"viability, T/C",[22],83.7%
same,"viability, T/C",[23],94%
same,"viability, T/C",[24],81%
same,"viability, T/C",[25],99.6%
same,"viability, T/C",[26],99.3%
same,"viability, T/C",[27],94.3%
same,"viability, T/C",[28],91.8%
same,"viability, T/C",[29],111%
same,"viability, T/C",[30],82.1%
same,"viability, T/C",[31],97.7%
same,"viability, T/C",[32],88.7%
same,"viability, T/C",[33],85.7%
same,"viability, T/C",[34],69.4%
same,"viability, T/C",[35],52.2%
same,"viability, T/C",[36],40.2%
